Measured values as given in patent US8916711B2, “Imidazothiazole-chalcone derivatives as potential anticancer agents and process for the preparation thereof” (Council of Scientific and Industrial Research, priority 2009, dated 2014).
Like-named read-outs stand apart in the source and are kept apart here.

Tests used:
Format in all cases: cell-based
SF-268 = assay: NCI in vitro cytotoxicity (SRB, 48 h), CNS panel; details: Homo sapiens; SF-268, CNS; 48 h exposure
HCC-2998 = assay: NCI in vitro cytotoxicity (SRB, 48 h), Colon panel; details: Homo sapiens
LOX IMVI = assay: NCI in vitro cytotoxicity (SRB, 48 h), Melanoma panel; details: Homo sapiens, 48 h exposure
A549/ATCC = assay: NCI in vitro cytotoxicity (SRB, 48 h), Non-small cell lung panel; details: Homo sapiens, 48 h exposure
CAKI-1 = assay: NCI in vitro cytotoxicity (SRB, 48 h), Renal panel; details: Homo sapiens; for GI50: CAKI-1, Renal, 48 h exposure; for IC50: CAKI-1, Table 4, read-out: Comparative efficacy
OVCAR-3 = assay: NCI in vitro cytotoxicity (SRB, 48 h), Ovarian panel; details: Homo sapiens; OVCAR-3, Ovarian; 48 h exposure
HOP-62 = assay: NCI in vitro cytotoxicity (SRB, 48 h), Non-small cell lung panel; details: Homo sapiens; HOP-62, Non-small cell lung; 48 h exposure
Melanoma cell lines = assay: NCI in vitro cytotoxicity, whole panel; details: Homo sapiens; for CC50: read-out: Log10 LC50 (converted)
IGROV1 = assay: NCI in vitro cytotoxicity (SRB, 48 h), Ovarian panel; details: Homo sapiens, IGROV-1; for IC50: IGROV1, Table 4, read-out: Comparative efficacy
NCI-H460 = assay: NCI in vitro cytotoxicity (SRB, 48 h), Non-small cell lung panel; details: Homo sapiens, 48 h exposure
NCI-H522 = assay: as above; details: Homo sapiens, 48 h exposure
HS 578T = assay: NCI in vitro cytotoxicity (SRB, 48 h), Breast panel; details: Homo sapiens, 48 h exposure
[1] = tested on: sixty human tumour cell lines; assay: NCI in vitro cytotoxicity, all panels; details: for CC50: read-out: Log10 LC50 mean graph midpoint (MG_MID) (converted)
HCT-116 = assay: NCI in vitro cytotoxicity (SRB, 48 h), Colon panel; details: Homo sapiens; for IC50: HCT-116, HCT116, Table 4, read-out: Comparative efficacy
HT29 = assay: NCI in vitro cytotoxicity (SRB, 48 h), Colon panel; details: Homo sapiens, HT-29, 48 h exposure
NCI-H23 = assay: NCI in vitro cytotoxicity (SRB, 48 h), Non-small cell lung panel; details: Homo sapiens, 48 h exposure
MOLT-4 = assay: NCI in vitro cytotoxicity (SRB, 48 h), Leukemia panel; details: Homo sapiens; MOLT-4, Leukemia; 48 h exposure
UO-31 = assay: NCI in vitro cytotoxicity (SRB, 48 h), Renal panel; details: Homo sapiens; UO-31, Renal; 48 h exposure
TK-10 = assay: NCI in vitro cytotoxicity (SRB, 48 h), Renal panel; details: Homo sapiens; TK-10, Renal; 48 h exposure
NCI-H322M = assay: NCI in vitro cytotoxicity (SRB, 48 h), Non-small cell lung panel; details: Homo sapiens, 48 h exposure
SK-OV-3 = assay: NCI in vitro cytotoxicity (SRB, 48 h), Ovarian panel; details: Homo sapiens; SK-OV-3, Ovarian; 48 h exposure
SNB-75 = assay: NCI in vitro cytotoxicity (SRB, 48 h), CNS panel; details: Homo sapiens; SNB-75, CNS; 48 h exposure
SNB-19 = assay: NCI in vitro cytotoxicity (SRB, 48 h), CNS panel; details: Homo sapiens; SNB-19, CNS; 48 h exposure
MDA-MB-468 = assay: NCI in vitro cytotoxicity (SRB, 48 h), Breast panel; details: Homo sapiens; MDA-MB-468, Breast; 48 h exposure
NCI-H226 = assay: NCI in vitro cytotoxicity (SRB, 48 h), Non-small cell lung panel; details: Homo sapiens, 48 h exposure
UACC-62 = assay: NCI in vitro cytotoxicity (SRB, 48 h), Melanoma panel; details: Homo sapiens; UACC-62, Melanoma; 48 h exposure
SK-MEL-5 = assay: as above; details: Homo sapiens; SK-MEL-5, Melanoma; 48 h exposure
U251 = assay: NCI in vitro cytotoxicity (SRB, 48 h), CNS panel; details: Homo sapiens, U-251, 48 h exposure
Renal cancer cell lines = assay: NCI in vitro cytotoxicity, whole panel; details: Homo sapiens; for CC50: read-out: Log10 LC50 (converted)
T-47D = assay: NCI in vitro cytotoxicity (SRB, 48 h), Breast panel; details: Homo sapiens, T47D, 48 h exposure
MDAMB-435 = assay: NCI in vitro cytotoxicity (SRB, 48 h), Melanoma panel; details: Homo sapiens, MDA-MB-435; MDAMB-435, Melanoma; 48 h exposure
SN12C = assay: NCI in vitro cytotoxicity (SRB, 48 h), Renal panel; details: Homo sapiens, 48 h exposure
786-0 = assay: NCI in vitro cytotoxicity (SRB, 48 h), Renal panel; details: Homo sapiens; 786-0, Renal; 48 h exposure
PC-3 = assay: NCI in vitro cytotoxicity (SRB, 48 h), Prostate panel; details: Homo sapiens; PC-3, Prostate; 48 h exposure
SK-MEL-28 = assay: NCI in vitro cytotoxicity (SRB, 48 h), Melanoma panel; details: Homo sapiens; SK-MEL-28, Melanoma; 48 h exposure
Breast cancer cell lines = assay: NCI in vitro cytotoxicity, whole panel; details: Homo sapiens; for GI50 / CC50: Breast, average of six to eight cell lines; for GI50: read-out: Log10 GI50 (converted); for CC50: read-out: Log10 LC50 (converted); for IC50: exposure period of at least 48 hrs, read-out: IC50, range over breast cell lines
[2] = Melanoma, average of six to eight cell lines, read-out: Log10 GI50 (converted)
[3] = Melanoma, average of six to eight cell lines
[4] = exposure period of at least 48 hrs, read-out: GI50, range over melanoma cell lines
[5] = Homo sapiens, sixty cell lines, nine panels, read-out: GI50 against sixty cell lines in nine cell panels
[6] = human tumour cell lines, read-out: Log10 GI50 mean graph midpoint (MG_MID) (converted)
[7] = Renal, average of six to eight cell lines, read-out: Log10 GI50 (converted)
[8] = Renal, average of six to eight cell lines
[9] = exposure period of at least 48 hrs, read-out: GI50, range over renal cell lines

## COc1ccc(-c2nc3sccn3c2/C=C/C(=O)c2cc(OC)c(OC)c(OC)c2)cc1 [Compound 7a, (E)-3-(6-(4-methoxyphenyl)imidazo[2,1-b]thiazol-5-yl)-1-(3,4,5-trimethoxyphenyl) prop-2-en-1-one]
SF-268
  GI50: 2890 nM
HCC-2998; HCC-2998, Colon, 48 h exposure
  GI50: 1770 nM
HCC-2998; HCC-2998, colon
  GI50: 1770 nM
LOX IMVI
  GI50: 2420 nM
A549/ATCC
  GI50: 2210 nM
CAKI-1
  GI50: 1200 nM
  IC50: 1200 nM
OVCAR-3
  GI50: 2230 nM
HOP-62
  GI50: 2210 nM
Melanoma cell lines; [2]
  GI50: 2630 nM
Melanoma cell lines; [3]
  CC50: 70800 nM
Melanoma cell lines; [4]
  GI50: 1300 to 5420 nM
IGROV1; IGROV1, Ovarian, 48 h exposure
  GI50: 210 nM
IGROV1; IGROV1, ovarian
  GI50: 210 nM
IGROV1
  IC50: 210 nM
NCI-H460
  GI50: 2700 nM
NCI-H522
  GI50: 1970 nM
HS 578T
  GI50: 1900 nM
[1]; [5]
  GI50: < 9000 nM
[1]; human tumour cell lines
  Log10 TGI mean graph midpoint (MG_MID): −4.76
  in vitro cytotoxicity, in words: significant cytotoxicity
  CC50: 87100 nM
[1]; [6]
  GI50: 2340 nM
HCT-116
  IC50: 1880 nM
HCT-116; HCT-116, Colon, 48 h exposure
  GI50: 1880 nM
HCT-116; HCT-116, colon
  GI50: 1880 nM
HT29
  GI50: 3120 nM
NCI-H23
  GI50: 2180 nM
MOLT-4
  GI50: 2520 nM
UO-31
  GI50: 1120 nM
TK-10
  GI50: 5040 nM
NCI-H322M
  GI50: 3700 nM
SK-OV-3
  GI50: 3280 nM
SNB-75
  GI50: 2290 nM
SNB-19
  GI50: 3540 nM
MDA-MB-468
  GI50: 2960 nM
NCI-H226
  GI50: 2580 nM
UACC-62
  GI50: 2080 nM
SK-MEL-5
  GI50: 1300 nM
U251
  GI50: 3050 nM
Renal cancer cell lines; [7]
  GI50: 2510 nM
Renal cancer cell lines; [8]
  CC50: ≥ 100000 nM
Renal cancer cell lines; [9]
  GI50: 1120 to 5040 nM
T-47D
  GI50: 2260 nM
MDAMB-435
  GI50: 2850 nM
SN12C
  GI50: 2880 nM
786-0
  GI50: 2580 nM
PC-3
  GI50: 3100 nM
SK-MEL-28
  GI50: 4110 nM
Breast cancer cell lines
  GI50: 2510 nM
  CC50: ≥ 100000 nM
  IC50: 1900 to 3460 nM

## COc1cc(C(=O)/C=C/c2c(-c3ccc(F)cc3)nc3sccn23)cc(OC)c1OC [Compound 7e, (E)-3-(6-(4-fluorophenyl)imidazo[2,1-b]thiazol-5-yl)-1-(3,4,5-trimethoxyphenyl)prop-2-en-1-one]
SF-268
  GI50: 2520 nM
HCC-2998; HCC-2998, Colon, 48 h exposure
  GI50: 2110 nM
LOX IMVI
  GI50: 1850 nM
A549/ATCC
  GI50: 2090 nM
CAKI-1
  GI50: 40 nM
  IC50: 40 nM
OVCAR-3
  GI50: 2160 nM
HOP-62
  GI50: 2250 nM
Melanoma cell lines; [2]
  GI50: 2630 nM
Melanoma cell lines; [3]
  CC50: 42700 nM
Melanoma cell lines; [4]
  GI50: 1820 to 8270 nM
IGROV1; IGROV1, Ovarian, 48 h exposure
  GI50: 1040 nM
IGROV1; IGROV1, ovarian
  GI50: 1040 nM
IGROV1
  IC50: 1040 nM
NCI-H460
  GI50: 2300 nM
NCI-H522
  GI50: 2320 nM
HS 578T
  GI50: 2050 nM
[1]; [5]
  GI50: < 9000 nM
[1]; human tumour cell lines
  Log10 TGI mean graph midpoint (MG_MID): −5.02
  in vitro cytotoxicity, in words: significant cytotoxicity
  CC50: 58900 nM
[1]; [6]
  GI50: 2240 nM
HCT-116
  IC50: 2330 nM
HCT-116; HCT-116, Colon, 48 h exposure
  GI50: 2330 nM
HT29
  GI50: 2840 nM
NCI-H23
  GI50: 2490 nM
MOLT-4
  GI50: 2070 nM
UO-31
  GI50: 2030 nM
TK-10
  GI50: 5810 nM
NCI-H322M
  GI50: 3630 nM
SK-OV-3
  GI50: 3020 nM
SNB-75
  GI50: 2460 nM
SNB-19
  GI50: 3730 nM
MDA-MB-468
  GI50: 3170 nM
NCI-H226
  GI50: 1890 nM
UACC-62
  GI50: 1820 nM
SK-MEL-5
  GI50: 1450 nM
U251
  GI50: 2180 nM
Renal cancer cell lines; [7]
  GI50: 1550 nM
Renal cancer cell lines; [8]
  CC50: 87100 nM
Renal cancer cell lines; [9]
  GI50: 40 to 5810 nM
T-47D
  GI50: 3250 nM
MDAMB-435
  GI50: 1820 nM
SN12C
  GI50: 1880 nM
786-0
  GI50: 2510 nM
PC-3
  GI50: 3430 nM
SK-MEL-28
  GI50: 4190 nM
Breast cancer cell lines
  GI50: 2820 nM
  CC50: ≥ 100000 nM
  IC50: 2050 to 3760 nM
